Columns and labels:
[1] = system: albumin; details: cited from earlier work
[2] = BPH Preclinical Study 4: tissue pharmacokinetics of paclitaxel; type: in vivo, dog
From the text: (§1) This study was completed on mongrel canines.

[3] = system: prostate; assay: BPH Preclinical Study 4: histology, clinical observation, urethra lumen diameter; type: in vivo, dog
From the text: as §1

[4] = BPH Preclinical Study 4: plasma paclitaxel concentration; type: in vivo, dog
From the text: as §1

[5] = Human clinical study, urethral strictures: paclitaxel in blood, urine, semen; type: in vivo
Experimental: Clinical subjects were evaluated at 14, 30, 90, 180, 365 days, and 2 years after the index procedure. Evaluations included analysis of stricture free rate, uroflowmetry including Qmax, and PVR.

[6] = Human clinical study, BPH: paclitaxel in blood, urine, semen; type: in vivo
[7] = with the addition of BSA; cited from earlier work
[8] = stability of additives with paclitaxel under ethylene oxide sterilization, heating and aging; details: additive with paclitaxel; reacted with paclitaxel

CO[C@H]1C[C@@H]2CC[C@@H](C)[C@@](O)(O2)C(=O)C(=O)N2CCCC[C@H]2C(=O)O[C@H]([C@H](C)C[C@@H]2CC[C@@H](O)[C@H](OC)C2)CC(=O)[C@H](C)/C=C(\C)[C@@H](O)[C@@H](OC)C(=O)[C@H](C)C[C@H](C)/C=C/C=C/C=C/1C [rapamycin]
protein bound [1]: 92%
share of protein binding that is to albumin ([1]; primarily to albumin): 97%

CC(=O)O[C@H]1C(=O)[C@@]2(C)[C@H]([C@H](OC(=O)c3ccccc3)[C@]3(O)C[C@H](OC(=O)[C@H](O)[C@@H](NC(=O)c4ccccc4)c4ccccc4)C(C)=C1C3(C)C)[C@]1(OC(C)=O)CO[C@@H]1C[C@@H]2O [paclitaxel]
prostate drug concentration, maximum dose arm versus standard dose ([2]; 28 days): 4.5 times
prostatic urethra drug concentration, maximum dose arm versus standard dose ([2]; 28 days): 11 times
prostate drug concentration, maximum dose arm versus standard dose ([2]; 70 days): 23 times
prostatic urethra drug concentration, maximum dose arm versus standard dose ([2]; 70 days): 23 times
average drug concentration, epididymis ([2]; lowest, immediately after treatment): 0.0017 µg/g
concentration at 28 days ([2]; male, mongrel, dog, prostate, other: transurethral drug-coated balloon catheter, 6.8 mg, standard dose arm, 28 days): 20 ng/g
concentration at 1 h ([2]; male, mongrel, dog, prostatic urethra, other: transurethral drug-coated balloon catheter, 6.8 mg): 28000 ng/g
concentration at 70 days ([2]; male, mongrel, dog, prostatic urethra, other: transurethral drug-coated balloon catheter, 6.8 mg, standard dose arm, 70 days): 4 ng/g
nonurethral close proximity tissue sample concentrations ([2]; most samples, 28 days and beyond): at or below the limit of quantification
clinical abnormalities ([3]; any animals, duration of the study): No significant clinical abnormalities
prostate histology ([3]; maximum dose animals, slower healing relative to standard dose and control): ongoing healing at 28 days
abnormalities or complications ([3]; maximum dose treatment arm using 19.6 mg of paclitaxel): no abnormalities or complications
plasma paclitaxel concentration ([4]; maximum dose, 12 hour and later): BLOQ
plasma paclitaxel concentration ([4]; standard dose, all time-points (1, 3, 7, 12 hours, 1, 3, 7, 14, and 28 days)): BLOQ
Human plasma paclitaxel concentration ([5]; 1 hour, 3 hours, 5 hours, 10 hours, 24 hours, and 5 days): below the level of quantification
concentration at 14 days ([5]; human, semen): 2.5 ng/mL
concentration at 30 days ([5]; human, semen): 1 ng/mL
concentration at 5 days ([5]; human, urine, 5 days): 2.6 ng/mL
concentration at 14 days ([5]; human, urine): 0.3 ng/mL
concentration at 30 days ([5]; human, urine): 0.1 ng/mL
Human urine paclitaxel concentration, average ([5]; immediately post procedure): 184 ng/mL
Human plasma paclitaxel concentration, average ([5]; immediately post treatment): 0.1 ng/mL
Human urine paclitaxel concentration, average ([6]; immediately post procedure): 598 ng/mL
Human plasma paclitaxel concentration, average ([6]; immediately post treatment): 0.2 ng/mL
concentration at 1 h ([6]; male, human, plasma, 2.4 μg of paclitaxel per millimeter squared, 1 hour): 0.2 ng/mL
concentration at 3 h ([6]; male, human, plasma, 2.4 μg of paclitaxel per millimeter squared, 3 hours): 0.1 ng/mL
concentration at 5 h ([6]; male, human, plasma, 2.4 μg of paclitaxel per millimeter squared, 5 hours): 0.1 ng/mL
concentration at 10 h ([6]; male, human, plasma, 2.4 μg of paclitaxel per millimeter squared, 10 hours): 0.07 ng/mL
concentration at 24 h ([6]; male, human, plasma, 2.4 μg of paclitaxel per millimeter squared, 24 hours): 0.03 ng/mL
concentration at 14 days ([6]; male, human, semen, 2.4 μg of paclitaxel per millimeter squared, 14 days): 5.3 ng/mL
concentration at 4 days ([6]; male, human, urine, 2.4 μg of paclitaxel per millimeter squared, 4 days): 202 ng/mL
concentration at 30 days ([6]; male, human, urine, 2.4 μg of paclitaxel per millimeter squared, 30 days): 5.1 ng/mL
increase of solubility in PBS [7]: over 20 fold

O=C(O)c1ccccc1 [benzoic acid]
stability under ethylene oxide sterilization, heating, and aging process [8]: not stable

Reference: patent publication US12280179B2 (Urotronic, Inc., priority 2012, dated 2025)
